From ChEMBL document CHEMBL1201862, “PubChem BioAssay data set” (2004)
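All cell lines were grown in 96-well plates and treated with compound for 48 hours. GI50 = concentration required for 50% inhibition of growth.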 The source made the active and inactive calls. Rule as the data show it: active = GI50 up to about 1.1 µM and inactive = higher.

Tests used:
Assay in all cases: DTP human tumour cell line panel, 48 h
HCT-116 = tested on: HCT-116
OVCAR-8 = tested on: OVCAR-8
SF-295 = tested on: SF-295
SR = tested on: SR
DMS-273 = tested on: DMS-273
ACHN = tested on: ACHN
HL-60 = tested on: HL-60
A549 = tested on: A549
COLO 205 = tested on: COLO 205
SNB-75 = tested on: SNB-75
M14 = tested on: M14
IGROV-1 = tested on: IGROV-1
NCI-H226 = tested on: NCI-H226
SK-OV-3 = tested on: SK-OV-3
RXF 393 = tested on: RXF 393
XF498 = tested on: XF498
UACC-62 = tested on: UACC-62
SK-MEL-5 = tested on: SK-MEL-5
HCC 2998 = tested on: HCC 2998
TK-10 = tested on: TK-10
SK-MEL-28 = tested on: SK-MEL-28
NCI-H23 = tested on: NCI-H23
786-0 = tested on: 786-0
DLD-1 = tested on: DLD-1
RPMI-8226 = tested on: RPMI-8226
U-251 = tested on: U-251
A498 = tested on: A498
LOX IMVI = tested on: LOX IMVI
SF-268 = tested on: SF-268
K562 = tested on: K562
HOP-62 = tested on: HOP-62
KM-20L2 = tested on: KM-20L2
EKVX = tested on: EKVX
SF-539 = tested on: SF-539
SNB-19 = tested on: SNB-19
SNB-78 = tested on: SNB-78
HOP-18 = tested on: HOP-18
LXFL 529 = tested on: LXFL 529
Malme-3M = tested on: Malme-3M
NCI-H460 = tested on: NCI-H460
OVCAR-3 = tested on: OVCAR-3
DMS-114 = tested on: DMS-114
SK-MEL-2 = tested on: SK-MEL-2
UACC-257 = tested on: UACC-257
CAKI-1 = tested on: CAKI-1
OVCAR-4 = tested on: OVCAR-4
UO-31 = tested on: UO-31
SN12C = tested on: SN12C
NCI-H522 = tested on: NCI-H522
OVCAR-5 = tested on: OVCAR-5
HCT-15 = tested on: HCT-15
CCRF-CEM = tested on: CCRF-CEM
MOLT-4 = tested on: MOLT-4
KM12 = tested on: KM12
HT-29 = tested on: HT-29
SW-620 = tested on: SW-620
M19-MEL = tested on: M19-MEL

C[C@H](NC(=O)OC1C2C=CC(O)C1CC2)c1ccccc1 (stereo not given in full) was tested, and the GI50 (HCT-116) was > 100 µM (inactive), the GI50 (OVCAR-8) was > 100 µM (inactive) and the GI50 (SF-295) was > 100 µM (inactive). For the same compound, the GI50 (SR) was 21.4 µM (inactive), the GI50 (DMS-273) was 24.4 µM (inactive) and the GI50 (ACHN) was > 100 µM (inactive). For the same compound, the GI50 (HL-60) was > 100 µM (inactive), the GI50 (A549) was > 100 µM (inactive) and the GI50 (COLO 205) was 40.9 µM (inactive). For the same compound, the GI50 (SNB-75) was > 100 µM (inactive), the GI50 (M14) was 31.1 µM (inactive) and the GI50 (IGROV-1) was > 100 µM (inactive). For the same compound, the GI50 (NCI-H226) was > 100 µM (inactive), the GI50 (SK-OV-3) was > 100 µM (inactive) and the GI50 (RXF 393) was > 100 µM (inactive). The GI50 (XF498) was > 100 µM (inactive), the GI50 (UACC-62) was > 100 µM (inactive) and the GI50 (SK-MEL-5) was > 100 µM (inactive). For the same compound, the GI50 (HCC 2998) was > 100 µM (inactive), the GI50 (TK-10) was > 100 µM (inactive) and the GI50 (SK-MEL-28) was > 100 µM (inactive). The GI50 (NCI-H23) was > 100 µM (inactive), the GI50 (786-0) was 38.1 µM (inactive) and the GI50 (DLD-1) was 89.1 µM (inactive). For the same compound, the GI50 (RPMI-8226) was 22.4 µM (inactive), the GI50 (U-251) was > 100 µM (inactive) and the GI50 (A498) was > 100 µM (inactive). The GI50 (LOX IMVI) was > 100 µM (inactive), the GI50 (SF-268) was > 100 µM (inactive) and the GI50 (K562) was > 100 µM (inactive). For the same compound, the GI50 (HOP-62) was > 100 µM (inactive), the GI50 (KM-20L2) was 45.3 µM (inactive) and the GI50 (EKVX) was > 100 µM (inactive). For the same compound, the GI50 (SF-539) was > 100 µM (inactive), the GI50 (SNB-19) was > 100 µM (inactive) and the GI50 (SNB-78) was > 100 µM (inactive). The GI50 (HOP-18) was > 100 µM (inactive), the GI50 (LXFL 529) was > 100 µM (inactive) and the GI50 (Malme-3M) was > 100 µM (inactive). The GI50 (NCI-H460) was 80 µM (inactive), the GI50 (OVCAR-3) was > 100 µM (inactive) and the GI50 (DMS-114) was 60.8 µM (inactive). For the same compound, the GI50 (SK-MEL-2) was > 100 µM (inactive), the GI50 (UACC-257) was > 100 µM (inactive) and the GI50 (CAKI-1) was > 100 µM (inactive). For the same compound, the GI50 (OVCAR-4) was > 100 µM (inactive), the GI50 (UO-31) was > 100 µM (inactive) and the GI50 (SN12C) was > 100 µM (inactive). For the same compound, the GI50 (NCI-H522) was > 100 µM (inactive), the GI50 (OVCAR-5) was > 100 µM (inactive) and the GI50 (HCT-15) was 13.1 µM. For the same compound, the GI50 (CCRF-CEM) was 81.1 µM (inactive), the GI50 (MOLT-4) was > 100 µM (inactive) and the GI50 (KM12) was > 100 µM (inactive). The GI50 (HT-29) was > 10 µM (inactive).
In the case of Cc1ccc(C2C(Cl)C(=O)N2n2cnc3ccccc3c2=O)cc1 (stereo not given), the GI50 (HCT-116) is reported as 89.3 µM (inactive), the GI50 (OVCAR-8) is reported as > 100 µM (inactive) and the GI50 (SF-295) is reported as > 100 µM (inactive). For the same compound, the GI50 (SR) was 21.5 µM (inactive), the GI50 (DMS-273) was > 100 µM (inactive) and the GI50 (ACHN) was > 100 µM (inactive). For the same compound, the GI50 (SW-620) was > 100 µM (inactive), the GI50 (HL-60) was 29.6 µM (inactive) and the GI50 (A549) was > 100 µM (inactive). The GI50 (COLO 205) was > 100 µM (inactive), the GI50 (SNB-75) was 91.6 µM (inactive) and the GI50 (M14) was > 100 µM (inactive). For the same compound, the GI50 (IGROV-1) was > 100 µM (inactive), the GI50 (NCI-H226) was 26 µM (inactive) and the GI50 (SK-OV-3) was 67.3 µM (inactive). The GI50 (RXF 393) was > 100 µM (inactive), the GI50 (XF498) was > 100 µM (inactive) and the GI50 (UACC-62) was 99.8 µM (inactive). For the same compound, the GI50 (SK-MEL-5) was 82.2 µM (inactive), the GI50 (HCC 2998) was > 100 µM (inactive) and the GI50 (TK-10) was > 100 µM (inactive). For the same compound, the GI50 (SK-MEL-28) was > 100 µM (inactive), the GI50 (NCI-H23) was > 100 µM (inactive) and the GI50 (786-0) was > 100 µM (inactive). The GI50 (DLD-1) was > 100 µM (inactive), the GI50 (RPMI-8226) was 37.3 µM (inactive) and the GI50 (U-251) was > 100 µM (inactive). For the same compound, the GI50 (LOX IMVI) was > 100 µM (inactive), the GI50 (SF-268) was > 100 µM (inactive) and the GI50 (K562) was 52.2 µM (inactive). For the same compound, the GI50 (HOP-62) was > 100 µM (inactive), the GI50 (KM-20L2) was > 100 µM (inactive) and the GI50 (EKVX) was 26.5 µM (inactive). The GI50 (SNB-19) was 44 µM (inactive), the GI50 (SNB-78) was > 100 µM (inactive) and the GI50 (HOP-18) was 18.1 µM (inactive). For the same compound, the GI50 (LXFL 529) was > 100 µM (inactive), the GI50 (Malme-3M) was > 100 µM (inactive) and the GI50 (NCI-H460) was > 100 µM (inactive). For the same compound, the GI50 (OVCAR-3) was 81.1 µM (inactive), the GI50 (DMS-114) was > 100 µM (inactive) and the GI50 (SK-MEL-2) was > 100 µM (inactive). The GI50 (M19-MEL) was > 100 µM (inactive), the GI50 (UACC-257) was 42 µM (inactive) and the GI50 (CAKI-1) was > 100 µM (inactive). For the same compound, the GI50 (OVCAR-4) was 65.9 µM (inactive), the GI50 (UO-31) was 23.4 µM (inactive) and the GI50 (SN12C) was > 100 µM (inactive). For the same compound, the GI50 (NCI-H522) was > 100 µM (inactive), the GI50 (OVCAR-5) was > 100 µM (inactive) and the GI50 (HCT-15) was over 100 µM. The GI50 (CCRF-CEM) was > 100 µM (inactive), the GI50 (MOLT-4) was 39.4 µM (inactive) and the GI50 (KM12) was > 100 µM (inactive). The GI50 (HT-29) was > 100 µM (inactive).
